SMILES strings stand for the structures.

In this assay the test system is Akt. Kind of assay: Akt Lum. Format: cell-based.
Regarding `Nc1nc2c(c(-c3c(Cl)cc(Cl)cc3OCCn3cc(Cl)cn3)n1)CN(C(=O)NC1CC1)C2` [Example 2, 2-amino-N-cyclopropyl-4-{2,4-dichloro-6-[2-(4-chloro-1H-pyrazol-1-yl)ethoxy]phenyl}-5,7-dihydro-6H-pyrrolo[3,4-d]pyrimidine-6-carboxamide], it took 104 nM to reach half-maximal inhibition (IC50).
The value for `Cc1cc(Cl)cc(OCCn2cccn2)c1-c1nc(N)nc2c1CN(C(=O)NC13CC(C1)C3)C2` [Example 3] was 52.5 nM.
Compound `Cc1cc(Cl)cc(OCCn2cc(F)cn2)c1-c1nc(N)nc2c1CN(C(=O)NC13CC(C1)C3)C2` [Example 7, 2-amino-N-bicyclo[1.1.1]pent-1-yl-4-{4-chloro-2-[2-(4-fluoro-1H-pyrazol-1-yl)ethoxy]-6-methylphenyl}-5,7-dihydro-6H-pyrrolo[3,4-d]pyrimidine-6-carboxamide] came in with an IC50 of 20.9 nM.
The compound `Nc1nc2c(c(-c3c(Cl)cc(Cl)cc3OCCn3cc(F)cn3)n1)CN(C(=O)NC1CC1)C2` [Example 10, 2-amino-N-cyclopropyl-4-{2,4-dichloro-6-[2-(4-fluoro-1H-pyrazol-1-yl)ethoxy]phenyl}-5,7-dihydro-6H-pyrrolo[3,4-d]pyrimidine-6-carboxamide] showed an IC50 of 111 nM. This IC50 lies about 5.3-fold higher than the previous one.
The value for `CC(F)(F)CNC(=O)N1Cc2nc(N)nc(-c3c(Cl)cc(Cl)cc3OCCn3cc(C#N)cn3)c2C1` [Example 11, 2-amino-4-{2,4-dichloro-6-[2-(4-cyano-1H-pyrazol-1-yl)ethoxy]phenyl}-N-(2,2-difluoropropyl)-5,7-dihydro-6H-pyrrolo[3,4-d]pyrimidine-6-carboxamide] was 2550 nM.
For `Nc1nc2c(c(-c3c(Cl)cc(Cl)cc3OCCn3cc(Br)cn3)n1)CN(C(=O)NC1CC1)C2` [Example 12, 2-amino-4-{2-[2-(4-bromo-1H-pyrazol-1-yl)ethoxy]-4,6-dichlorophenyl}-N-cyclopropyl-5,7-dihydro-6H-pyrrolo[3,4-d]pyrimidine-6-carboxamide] the value was 175 nM; for `Nc1nc2c(c(-c3c(Cl)cc(Cl)cc3OCCn3ccc(C(F)(F)F)n3)n1)CN(C(=O)NC1CC1)C2` [Example 13, 2-amino-N-cyclopropyl-4-(2,4-dichloro-6-{2-[3-(trifluoromethyl)-1H-pyrazol-1-yl]ethoxy}phenyl)-5,7-dihydro-6H-pyrrolo[3,4-d]pyrimidine-6-carboxamide], 660 nM.
As for `Nc1nc2c(c(-c3c(Cl)cc(Cl)cc3OCCn3nccc3C(F)(F)F)n1)CN(C(=O)NC1CC1)C2` [Example 14, 2-amino-N-cyclopropyl-4-(2,4-dichloro-6-{2-[5-(trifluoromethyl)-1H-pyrazol-1-yl]ethoxy}phenyl)-5,7-dihydro-6H-pyrrolo[3,4-d]pyrimidine-6-carboxamide], the IC50 was 6690 nM.
The value for `Cc1cc(C(F)(F)F)n(CCOc2cc(Cl)cc(Cl)c2-c2nc(N)nc3c2CN(C(=O)NC2CC2)C3)n1` [Example 15, 2-amino-N-cyclopropyl-4-(2,4-dichloro-6-{2-[3-methyl-5-(trifluoromethyl)-1H-pyrazol-1-yl]ethoxy}phenyl)-5,7-dihydro-6H-pyrrolo[3,4-d]pyrimidine-6-carboxamide] was 18300 nM; that for `Cc1cc(C(F)(F)F)nn1CCOc1cc(Cl)cc(Cl)c1-c1nc(N)nc2c1CN(C(=O)NC1CC1)C2` [Example 16, 2-amino-N-cyclopropyl-4-(2,4-dichloro-6-{2-[5-methyl-3-(trifluoromethyl)-1H-pyrazol-1-yl]ethoxy}phenyl)-5,7-dihydro-6H-pyrrolo[3,4-d]pyrimidine-6-carboxamide] was 9960 nM.

What is called IC50 is the concentration needed to halve the response being measured. A lower IC50 goes with higher potency.

The values above are taken from patent US8080556B2, “2-amino pyrimidine compounds as potent HSP-90 inhibitors” (Pfizer Inc., priority 2008, dated 2011).
